Key:
[1] = molecular target: T1, Orexin/Hypocretin receptor type 1 (Homo sapiens, UniProt O43613); assay: Antagonist activity at human OX1R expressed in CHOK1 cells by Syto62 probe based fluorescence assay; format: cell-based
T1 sequence (O43613 whole entry): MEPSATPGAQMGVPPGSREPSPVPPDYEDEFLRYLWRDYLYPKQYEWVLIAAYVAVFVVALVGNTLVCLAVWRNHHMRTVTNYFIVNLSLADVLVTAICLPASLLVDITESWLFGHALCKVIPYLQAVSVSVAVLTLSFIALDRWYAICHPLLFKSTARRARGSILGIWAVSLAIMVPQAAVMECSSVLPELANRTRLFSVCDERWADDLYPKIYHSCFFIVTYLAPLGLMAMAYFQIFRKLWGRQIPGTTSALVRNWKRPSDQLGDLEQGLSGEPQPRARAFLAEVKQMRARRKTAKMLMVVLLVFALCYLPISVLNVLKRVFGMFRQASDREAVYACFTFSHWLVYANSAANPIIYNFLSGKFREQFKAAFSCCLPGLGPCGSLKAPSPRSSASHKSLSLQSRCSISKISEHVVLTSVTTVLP

Orexin receptor type 2 = molecular target: T2, Orexin receptor type 2 (Homo sapiens, UniProt O43614); assay: Antagonist activity at human OX2R expressed in CHOK1 cells by Syto62 probe based fluorescence assay; format: cell-based
T2 sequence (O43614 whole entry): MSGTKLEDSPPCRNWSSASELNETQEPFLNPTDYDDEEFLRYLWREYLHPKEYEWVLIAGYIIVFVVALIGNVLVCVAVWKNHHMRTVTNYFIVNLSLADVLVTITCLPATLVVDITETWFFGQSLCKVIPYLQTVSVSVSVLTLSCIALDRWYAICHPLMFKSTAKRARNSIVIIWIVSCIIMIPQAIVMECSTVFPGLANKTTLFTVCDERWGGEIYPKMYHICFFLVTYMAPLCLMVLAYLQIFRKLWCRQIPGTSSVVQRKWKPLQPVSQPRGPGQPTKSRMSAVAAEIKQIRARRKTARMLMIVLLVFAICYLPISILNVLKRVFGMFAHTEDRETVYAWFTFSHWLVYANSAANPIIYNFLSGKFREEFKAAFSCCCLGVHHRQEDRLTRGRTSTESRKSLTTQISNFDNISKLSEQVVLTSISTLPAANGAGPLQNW

IC50 [1]: 89 nM | IC50 (Orexin receptor type 2): > 5.87 µM
SMILES: O=C(c1nccc2[nH]cnc12)N1CCC(F)(F)C(Oc2ccc3ccccc3n2)C1 (configuration not stated)
